Measured values as given in ChEMBL document CHEMBL3881530, “Compounds and methods for inhibiting NHE-mediated antiport in the treatment of disorders associated with fluid retention or salt overload and gastrointestinal tract disorders” (2013).
Calls of active or inactive are those of the source. The rule behind the calls is not given here.

Assays:
[1] = AUC in Sprague-Dawley rat at 4.6 mg/kg administered via oral gavage measured up to 4 hrs by LC/MS/MS analysis; type: ADME, organism-based; set-up: time < 4 hr, dose 4.6 mg/kg, route oral; details: in vivo
[2] = Cmax in Sprague-Dawley rat at 4.6 mg/kg administered via oral gavage measured up to 4 hrs by LC/MS/MS analysis; type: ADME, organism-based; set-up: dose 4.6 mg/kg, route oral; details: in vivo
[3] = AUC in Sprague-Dawley rat at 1.6 mg/kg administered via oral gavage measured up to 4 hrs by LC/MS/MS analysis; type: ADME, organism-based; set-up: time < 4 hr, dose 1.6 mg/kg, route oral; details: in vivo
[4] = Cmax in Sprague-Dawley rat at 1.6 mg/kg administered via oral gavage measured up to 4 hrs by LC/MS/MS analysis; type: ADME, organism-based; set-up: dose 1.6 mg/kg, route oral; details: in vivo
[5] = AUC in Sprague-Dawley rat at 21 mg/kg administered via oral gavage measured up to 4 hrs by LC/MS/MS analysis; type: ADME, organism-based; set-up: dose 21 mg/kg, time < 4 hr, route oral; details: in vivo
[6] = Cmax in Sprague-Dawley rat at 21 mg/kg administered via oral gavage measured up to 4 hrs by LC/MS/MS analysis; type: ADME, organism-based; set-up: dose 21 mg/kg, route oral; details: in vivo
[7] = Apparent permeability of the compound from apical to basolateral side at pH 7.4 after 3 hrs by PAMPA; type: ADME
Rattus norvegicus [8] = assay: Antinociceptive activity in Wistar rat assessed as inhibition of partial restraint stress-induced visceral hyperalgesia at 10 mg/kg, po administered 1 hr prior to 45 to 60 mm Hg colorectal distension pressure by measuring number of abdominal contractions monitoring every 5 mins during rectal distension; type: functional, organism-based; details: Abdominal cavity
Rattus norvegicus [9] = assay: Reduction in fecal stool form in 1% psyllium diet fed Sprague-Dawley rat at 3 mg/kg administered via oral gavage measured after 16 hrs; type: functional, organism-based
Rattus norvegicus [10] = assay: Decrease in urinary sodium level in 1% psyllium diet fed Sprague-Dawley rat at 3 mg/kg administered via oral gavage measured after 16 hrs by ion chromatographic analysis; type: functional, organism-based
Rattus norvegicus [11] = assay: Increase in fecal sodium level in Sprague-Dawley rat at 3 mg/kg administered via oral gavage measured after 16 hrs by ion chromatographic analysis; type: functional, organism-based
Rattus norvegicus [12] = assay: Increase in fecal water content in 1% psyllium diet fed Sprague-Dawley rat at 3 mg/kg administered via oral gavage measured after 16 hrs; type: functional, organism-based
[13] = Cmax in Sprague-Dawley rat at 1.3 mg/kg administered via oral gavage measured up to 4 hrs by LC/MS/MS analysis; type: ADME, organism-based; set-up: dose 1.3 mg/kg, route oral; details: in vivo
[14] = AUC in Sprague-Dawley rat at 1.3 mg/kg administered via oral gavage measured up to 4 hrs by LC/MS/MS analysis; type: ADME, organism-based; set-up: dose 1.3 mg/kg, time < 4 hr, route oral; details: in vivo
[15] = biological target: T1, Sodium/hydrogen exchanger 2 (Oryctolagus cuniculus, UniProt P50482); assay: Inhibition of rabbit NHE-2
T1 sequence (P50482 whole entry): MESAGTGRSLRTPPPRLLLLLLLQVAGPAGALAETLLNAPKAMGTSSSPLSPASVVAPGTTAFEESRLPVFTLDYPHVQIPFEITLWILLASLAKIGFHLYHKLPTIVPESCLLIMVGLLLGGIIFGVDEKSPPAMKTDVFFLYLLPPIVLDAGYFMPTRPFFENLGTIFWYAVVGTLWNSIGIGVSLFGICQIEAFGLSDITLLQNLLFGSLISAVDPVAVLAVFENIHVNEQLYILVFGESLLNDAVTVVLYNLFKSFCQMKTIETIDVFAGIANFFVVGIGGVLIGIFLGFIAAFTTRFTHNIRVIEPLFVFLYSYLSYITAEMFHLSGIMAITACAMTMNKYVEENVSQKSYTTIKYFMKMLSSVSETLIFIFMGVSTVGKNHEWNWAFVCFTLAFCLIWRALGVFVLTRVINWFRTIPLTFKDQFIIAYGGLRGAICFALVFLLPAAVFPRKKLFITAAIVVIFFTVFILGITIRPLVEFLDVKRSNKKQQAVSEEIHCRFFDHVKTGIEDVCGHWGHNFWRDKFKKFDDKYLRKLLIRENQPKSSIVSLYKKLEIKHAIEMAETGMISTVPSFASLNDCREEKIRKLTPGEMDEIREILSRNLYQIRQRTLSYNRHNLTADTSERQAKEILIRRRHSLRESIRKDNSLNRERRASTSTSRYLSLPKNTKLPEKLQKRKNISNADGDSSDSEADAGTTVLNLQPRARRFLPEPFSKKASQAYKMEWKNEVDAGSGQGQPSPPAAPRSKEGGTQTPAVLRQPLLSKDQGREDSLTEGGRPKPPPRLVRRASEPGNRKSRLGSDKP

[16] = biological target: T2, Sodium/hydrogen exchanger 3 (Homo sapiens, UniProt P48764); assay: Inhibition of NHE-3 (unknown origin)
T2 sequence (P48764 whole entry): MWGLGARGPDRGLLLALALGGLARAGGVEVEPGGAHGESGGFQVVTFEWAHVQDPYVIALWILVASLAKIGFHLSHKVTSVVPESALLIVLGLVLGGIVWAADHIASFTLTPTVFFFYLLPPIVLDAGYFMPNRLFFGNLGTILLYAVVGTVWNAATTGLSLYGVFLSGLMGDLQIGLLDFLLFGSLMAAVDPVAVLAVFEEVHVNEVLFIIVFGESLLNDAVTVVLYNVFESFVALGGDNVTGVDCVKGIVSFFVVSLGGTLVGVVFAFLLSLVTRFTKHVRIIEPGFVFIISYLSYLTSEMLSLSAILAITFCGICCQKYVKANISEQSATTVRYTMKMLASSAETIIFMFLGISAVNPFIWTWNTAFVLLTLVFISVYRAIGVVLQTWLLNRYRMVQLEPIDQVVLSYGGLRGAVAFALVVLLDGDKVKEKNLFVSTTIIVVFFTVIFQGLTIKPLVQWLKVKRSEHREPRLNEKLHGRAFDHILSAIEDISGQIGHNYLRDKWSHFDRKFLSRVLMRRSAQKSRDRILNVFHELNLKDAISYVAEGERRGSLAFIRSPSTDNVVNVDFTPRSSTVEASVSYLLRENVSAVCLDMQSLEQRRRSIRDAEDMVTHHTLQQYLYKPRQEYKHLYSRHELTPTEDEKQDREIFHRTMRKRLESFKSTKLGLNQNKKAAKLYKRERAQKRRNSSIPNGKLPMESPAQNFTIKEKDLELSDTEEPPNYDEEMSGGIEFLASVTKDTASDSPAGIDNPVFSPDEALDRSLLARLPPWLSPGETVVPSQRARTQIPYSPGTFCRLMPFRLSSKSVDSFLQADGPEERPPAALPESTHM

[17] = biological target: Sodium/hydrogen exchanger 1 (Homo sapiens, UniProt P19634); assay: Inhibition of NHE-1 (unknown origin)
Sequence of Sodium/hydrogen exchanger 1 (P19634 whole entry): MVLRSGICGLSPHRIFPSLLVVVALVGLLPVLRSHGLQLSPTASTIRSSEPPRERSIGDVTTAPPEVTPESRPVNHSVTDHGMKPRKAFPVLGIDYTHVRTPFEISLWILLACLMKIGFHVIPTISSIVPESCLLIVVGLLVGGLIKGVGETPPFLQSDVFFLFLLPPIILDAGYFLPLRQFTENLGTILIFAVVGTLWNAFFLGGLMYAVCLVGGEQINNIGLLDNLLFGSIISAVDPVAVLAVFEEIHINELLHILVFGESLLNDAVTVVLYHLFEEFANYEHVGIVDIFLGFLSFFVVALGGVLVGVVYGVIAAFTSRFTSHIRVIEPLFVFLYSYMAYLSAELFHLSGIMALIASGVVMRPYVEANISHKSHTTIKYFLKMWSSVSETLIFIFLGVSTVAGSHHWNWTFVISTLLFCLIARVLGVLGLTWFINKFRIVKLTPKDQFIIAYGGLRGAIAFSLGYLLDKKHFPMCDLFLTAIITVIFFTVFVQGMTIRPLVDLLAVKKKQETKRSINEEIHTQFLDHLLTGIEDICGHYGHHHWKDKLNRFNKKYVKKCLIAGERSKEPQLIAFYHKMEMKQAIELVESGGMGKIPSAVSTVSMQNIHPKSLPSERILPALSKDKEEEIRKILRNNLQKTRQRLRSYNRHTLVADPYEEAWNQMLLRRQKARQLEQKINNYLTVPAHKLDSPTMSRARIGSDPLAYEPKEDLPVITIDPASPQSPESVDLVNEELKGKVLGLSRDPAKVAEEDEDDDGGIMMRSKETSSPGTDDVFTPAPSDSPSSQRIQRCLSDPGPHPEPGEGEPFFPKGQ

[18] = Cmax in Sprague-Dawley rat at 2.4 mg/kg administered via oral gavage measured up to 4 hrs by LC/MS/MS analysis; type: ADME, organism-based; set-up: dose 2.4 mg/kg, route oral; details: in vivo
[19] = biological target: Sodium/hydrogen exchanger 3 (Rattus norvegicus, UniProt P26433); assay: Inhibition of rat NHE-3
Sequence of Sodium/hydrogen exchanger 3 (Rattus norvegicus, UniProt P26433) (P26433 whole entry): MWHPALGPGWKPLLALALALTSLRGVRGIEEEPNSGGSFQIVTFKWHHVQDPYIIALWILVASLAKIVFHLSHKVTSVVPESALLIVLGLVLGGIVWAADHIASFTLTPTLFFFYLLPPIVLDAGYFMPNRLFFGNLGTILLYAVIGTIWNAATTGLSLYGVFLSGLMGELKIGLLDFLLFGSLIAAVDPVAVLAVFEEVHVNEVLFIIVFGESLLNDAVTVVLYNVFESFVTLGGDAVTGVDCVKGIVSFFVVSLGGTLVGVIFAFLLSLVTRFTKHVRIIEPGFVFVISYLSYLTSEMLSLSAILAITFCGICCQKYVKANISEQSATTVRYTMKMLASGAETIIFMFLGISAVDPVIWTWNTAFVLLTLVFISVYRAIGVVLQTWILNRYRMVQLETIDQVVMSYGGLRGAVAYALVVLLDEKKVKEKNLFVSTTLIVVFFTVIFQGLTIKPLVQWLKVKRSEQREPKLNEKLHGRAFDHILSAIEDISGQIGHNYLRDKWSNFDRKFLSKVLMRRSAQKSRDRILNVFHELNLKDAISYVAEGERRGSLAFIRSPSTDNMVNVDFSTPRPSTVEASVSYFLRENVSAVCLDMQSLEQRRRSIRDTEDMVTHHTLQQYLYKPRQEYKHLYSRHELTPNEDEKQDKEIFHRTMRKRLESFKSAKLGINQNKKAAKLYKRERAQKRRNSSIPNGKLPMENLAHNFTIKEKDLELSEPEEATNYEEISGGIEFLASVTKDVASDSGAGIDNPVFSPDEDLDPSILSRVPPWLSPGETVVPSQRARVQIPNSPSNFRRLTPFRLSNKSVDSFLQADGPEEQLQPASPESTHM

[20] = Cmax in Sprague-Dawley rat at 1.5 mg/kg administered via oral gavage measured up to 4 hrs by LC/MS/MS analysis; type: ADME, organism-based; set-up: dose 1.5 mg/kg, route oral; details: in vivo
[21] = AUC in Sprague-Dawley rat at 1.5 mg/kg administered via oral gavage measured up to 4 hrs by LC/MS/MS analysis; type: ADME, organism-based; set-up: time < 4 hr, dose 1.5 mg/kg, route oral; details: in vivo
[22] = AUC in Sprague-Dawley rat at 27 mg/kg administered via oral gavage measured up to 4 hrs by LC/MS/MS analysis; type: ADME, organism-based; set-up: time < 4 hr, dose 27 mg/kg, route oral; details: in vivo
[23] = Cmax in Sprague-Dawley rat at 27 mg/kg administered via oral gavage measured up to 4 hrs by LC/MS/MS analysis; type: ADME, organism-based; set-up: dose 27 mg/kg, route oral; details: in vivo

`C/C(=C\c1cc(F)c(Oc2ccc(S(=O)(=O)NCc3ccc(CP(=O)(O)O)cc3)cc2)c(F)c1)C(=O)N=C(N)N` gave an AUC at 4 h [1] of 9 ng·h/mL and a Cmax [2] of 14 ng/mL.

For `CN1Cc2c(Cl)cc(Cl)cc2C(c2cccc(S(=O)(=O)NCCN(CCNS(=O)(=O)c3cccc(C4CN(C)Cc5c(Cl)cc(Cl)cc54)c3)CCNS(=O)(=O)c3cccc(C4CN(C)Cc5c(Cl)cc(Cl)cc54)c3)c2)C1` (stereo not drawn), the AUC at 4 h [3] was 159 ng·h/mL and the Cmax [4] was 71 ng/mL.

With `CN1Cc2c(Cl)cc(Cl)cc2C(c2cccc(S(=O)(=O)NCCOCCOCCOCCNC(=O)Nc3ccc(NC(=O)NCCOCCOCCOCCNS(=O)(=O)c4cccc([C@@H]5CN(C)Cc6c(Cl)cc(Cl)cc65)c4)cc3)c2)C1` (mixture of isomers) the AUC at 4 h [5] was < 2 ng·h/mL and the Cmax [6] was < 2 ng/mL.

Compound `NC(N)=Nc1nc(-c2cccc(N3CCN(CCCC(=O)O)CC3)c2)c2cc(Cl)ccc2n1.O=C(O)C(F)(F)F` has a Papp at 3 h [7] of 0.4 ×10⁻⁶ cm/s.

For `CN1Cc2c(Cl)cc(Cl)cc2C(c2cccc(S(=O)(=O)NCCOCCOCCOCCNC(=O)C(O)C(O)C(=O)NCCOCCOCCOCCNS(=O)(=O)c3cccc(C4CN(C)Cc5c(Cl)cc(Cl)cc54)c3)c2)C1` (single isomer, unassigned), the inhibition (Rattus norvegicus [8]) was “Active”, the Activity (Rattus norvegicus [9]) was “Active” and the Activity (Rattus norvegicus [10]) was “Active”. The Activity (Rattus norvegicus [11]) was “Active” and the Activity (Rattus norvegicus [12]) was “Active”.

For `CN1Cc2c(Cl)cc(Cl)cc2C(c2cccc(NS(=O)(=O)NCCP(=O)(O)O)c2)C1` (stereo not drawn), the Cmax [13] was 11 ng/mL and the AUC at 4 h [14] was 56 ng·h/mL.

Compound `C/C(=C\c1cc(C)ccc1/C=C(\C)C(=O)NC(=N)N)C(=O)N=C(N)N` has an IC50 [15] of 80 µM, an IC50 [16] of 0.02 µM and an IC50 [17] of 3.6 µM.

`N=C(N)N1CCN(c2cccc(-c3nc(N=C(N)N)nc4ccc(Cl)cc34)c2)CC1` gave a Cmax [18] of 2 ng/mL.

For `N=C(N)NC(=O)c1cnn(-c2cccc3ncccc23)c1C1CC1` [ZONIPORIDE], the IC50 [19] was > 500 µM.

With `C/C(=C\c1cc(F)c(Oc2ccc(S(=O)(=O)NCCOCCOCCOCCNC(=O)[C@H](O)[C@@H](O)C(=O)NCCOCCOCCOCCNS(=O)(=O)c3ccc(Oc4c(F)cc(/C=C(\C)C(=O)N=C(N)N)cc4F)cc3)cc2)c(F)c1)C(=O)N=C(N)N` the Cmax [20] was < 2.7 ng/mL and the AUC at 4 h [21] was < 4.4 ng·h/mL.

In the case of `CN1Cc2c(Cl)cc(Cl)cc2[C@H](c2ccc(S(=O)(=O)NCCOCCOCCOCCNC(=O)C(O)C(O)C(=O)NCCOCCOCCOCCNS(=O)(=O)c3ccc([C@@H]4CN(C)Cc5c(Cl)cc(Cl)cc54)cc3)cc2)C1` (single isomer, unassigned), the AUC at 4 h [22] is reported as < 5.3 ng·h/mL and the Cmax [23] is reported as < 3.5 ng/mL.
